Measurements taken from patent publication US6737383B1, “Herbicidal oxadiazolidines” (priority 1999, dated 2004).

Tests used:
[1] = tested on: blackgrass; test: Test B pre/postemergence blackgrass; type: in vivo, Alopecurus myosuroides
Procedure, shortened: (§1)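 Test chemicals in a non-phytotoxic solvent mixture with surfactant were sprayed preemergence onto planted seeds and postemergence onto plants 2 to 18 cm tall (1- to 4-leaf stage). After twelve to sixteen days in a greenhouse, injury was visually rated against untreated controls from 0 (no effect) to 10 (complete control).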

[2] = tested on: giant foxtail; test: Test B pre/postemergence giant foxtail; type: in vivo, Setaria faberii
Procedure, shortened: as §1

[3] = tested on: wheat; test: Test B pre/postemergence wheat; type: in vivo, Triticum aestivum
Procedure, shortened: as §1

[4] = tested on: purple nutsedge; test: Test B pre/postemergence purple nutsedge; type: in vivo, Cyperus rotundus
Procedure, shortened: as §1

[5] = Postemergence, Rate 250 g/ha, scale 0 to 10
[6] = Postemergence, Rate 500 g/ha, scale of 0 to 10 where 0 is no effect and 10 is complete control
[7] = Preemergence, Rate 62 g/ha, scale 0 to 10 (0 no effect, 10 complete control)
[8] = Preemergence, Rate 125 g/ha, scale of 0 to 10 where 0 is no effect and 10 is complete control
[9] = Preemergence, Rate 250 g/ha, scale of 0 to 10 where 0 is no effect and 10 is complete control
[10] = Preemergence, Rate 500 g/ha, scale 0 to 10, 0 is no effect, 10 is complete control
[11] = Rate 62 g/ha, Postemergence, scale of 0 to 10 where 0 is no effect and 10 is complete control
[12] = Rate 125 g/ha, Postemergence, scale 0 to 10, 0 is no effect, 10 is complete control
[13] = Preemergence, Rate 250 g/ha, scale 0 to 10, 0 is no effect, 10 is complete control
[14] = Postemergence, Rate 62 g/ha, scale 0 to 10, 0 is no effect, 10 is complete control
[15] = Postemergence, Rate 250 g/ha, scale 0 to 10, 0 no effect, 10 complete control
[16] = Preemergence, Rate 62 g/ha, scale 0 to 10, 0 is no effect, 10 is complete control
[17] = Preemergence, Rate 125 g/ha, scale 0 to 10 (0 no effect, 10 complete control)
[18] = Preemergence, Rate 500 g/ha, scale 0 (no effect) to 10 (complete control)
[19] = Rate 125 g/ha, Postemergence, scale 0 to 10, 0 no effect, 10 complete control
[20] = Rate 500 g/ha, Postemergence, scale 0 to 10, 0 no effect, 10 complete control

CC(C)N(C(=O)n1oc(=O)n(C[Si](C)(C)c2ccccc2)c1=O)c1ccc(Cl)cc1 [Compound 424]
0: Blackgrass plant response rating [1, 5] | Blackgrass plant response rating [1, 6] | Plant response rating, Blackgrass [1, 7] | Plant response rating, Blackgrass [1, 8] | Blackgrass plant response rating [1, 9] | Blackgrass plant response rating [1, 10] | Blackgrass plant response rating [1, 11] | Blackgrass plant response rating [1, 12] | Giant foxtail plant response rating [2, 5] | Giant foxtail plant response rating [2, 6] | Plant response rating, Giant foxtail [2, 7] | Plant response rating, Giant foxtail [2, 8] | Giant foxtail plant response rating [2, 13] | Giant foxtail plant response rating [2, 10] | Giant foxtail plant response rating [2, 11] | Giant foxtail plant response rating [2, 12] | Wheat plant response rating [3, 5] | Wheat plant response rating [3, 6] | Plant response rating, Wheat [3, 7] | Plant response rating, Wheat [3, 8] | Wheat plant response rating [3, 13] | Wheat plant response rating [3, 10] | Wheat plant response rating [3, 12] | Nutsedge plant response rating [4, 5] | Nutsedge plant response rating [4, 6] | Plant response rating, Nutsedge [4, 7] | Plant response rating, Nutsedge [4, 8] | Nutsedge plant response rating [4, 13] | Nutsedge plant response rating [4, 10] | Nutsedge plant response rating [4, 12]

Cc1ccccc1-n1c(=O)on(C(=O)N(c2ccc(F)c(F)c2)C(C)C)c1=O [Compound 48]
9: Plant response rating, Giant foxtail [2, 17]
0: Blackgrass plant response rating [1, 14] | Blackgrass plant response rating [1, 15] | Plant response rating, Blackgrass [1, 16] | Plant response rating, Blackgrass [1, 17] | Blackgrass plant response rating [1, 19] | Blackgrass plant response rating [1, 20] | Giant foxtail plant response rating [2, 14] | Giant foxtail plant response rating [2, 19] | Wheat plant response rating [3, 14] | Wheat plant response rating [3, 15] | Plant response rating, Wheat [3, 16] | Plant response rating, Wheat [3, 17] | Plant response rating, Wheat [3, 9] | Wheat plant response rating [3, 18] | Wheat plant response rating [3, 19] | Wheat plant response rating [3, 20] | Nutsedge plant response rating [4, 14] | Nutsedge plant response rating [4, 15] | Plant response rating, Nutsedge [4, 16] | Plant response rating, Nutsedge [4, 17] | Plant response rating, Nutsedge [4, 9] | Nutsedge plant response rating [4, 18] | Nutsedge plant response rating [4, 19] | Nutsedge plant response rating [4, 20]
3: Giant foxtail plant response rating [2, 20]
6: Plant response rating, Giant foxtail [2, 16]
10: Plant response rating, Giant foxtail [2, 9] | Giant foxtail plant response rating [2, 18]
2: Plant response rating, Blackgrass [1, 9] | Blackgrass plant response rating [1, 18] | Giant foxtail plant response rating [2, 15]
